The results in this text go back to ChEMBL document CHEMBL1201862, “PubChem BioAssay data set” (2004).

The source made the active and inactive calls.

Test [1] can be described thus: cells. The following applies: A549.
Test [2] is described as follows: cytotoxicity toward MDA-MB-231 breast cancer cells – cell-based, CellTiter-Glo luminescence, cherry-pick, cytotoxicity control for RAD54 inhibitor project, dose response (AID 651692). It counts as functional.
The target in test [3] is FAD-linked sulfhydryl oxidase ALR (Homo sapiens, UniProt P55789). In words: ALR-catalysed DTT oxidation blockers – biochemical, H2O2 detection, luminescence, cherry-pick, dose response (AID 493248).
A short description of test [4]: cells.
Test [5] addresses T1, Ubiquitin-conjugating enzyme E2 N (Homo sapiens, UniProt P61088).
T1 sequence (P61088 whole entry): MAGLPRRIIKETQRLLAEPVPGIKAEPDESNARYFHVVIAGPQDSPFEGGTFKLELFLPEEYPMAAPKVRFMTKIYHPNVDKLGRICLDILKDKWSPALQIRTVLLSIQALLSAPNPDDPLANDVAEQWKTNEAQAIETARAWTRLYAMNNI
It counts as functional.

Test [6] can be described thus: cells. The following applies: HEK293.
For test [7], the system named is H4. Nature of the test: Luminescence Cell-Based Dose Response HTS to Identify Activators of 5'UTR Stem-Loop Driven Prion Protein mRNA Translation in H4 Neuroglioblastoma Cells. [Related pubchem assays: 1829 (Project Summary), 1814 (Primary HTS)]. It counts as functional. The following applies: Homo sapiens.
Test [8] in a line: viability loss in HepG2 liver cells – cell-based, ATP luminescence, cherry-pick, set 6, cytotoxicity control, dose response (AID 1053125). It is filed as functional.
The target in test [9] is T2, DNA repair and recombination protein RAD54-like (Homo sapiens, UniProt Q92698).
T2 sequence (Q92698 whole entry): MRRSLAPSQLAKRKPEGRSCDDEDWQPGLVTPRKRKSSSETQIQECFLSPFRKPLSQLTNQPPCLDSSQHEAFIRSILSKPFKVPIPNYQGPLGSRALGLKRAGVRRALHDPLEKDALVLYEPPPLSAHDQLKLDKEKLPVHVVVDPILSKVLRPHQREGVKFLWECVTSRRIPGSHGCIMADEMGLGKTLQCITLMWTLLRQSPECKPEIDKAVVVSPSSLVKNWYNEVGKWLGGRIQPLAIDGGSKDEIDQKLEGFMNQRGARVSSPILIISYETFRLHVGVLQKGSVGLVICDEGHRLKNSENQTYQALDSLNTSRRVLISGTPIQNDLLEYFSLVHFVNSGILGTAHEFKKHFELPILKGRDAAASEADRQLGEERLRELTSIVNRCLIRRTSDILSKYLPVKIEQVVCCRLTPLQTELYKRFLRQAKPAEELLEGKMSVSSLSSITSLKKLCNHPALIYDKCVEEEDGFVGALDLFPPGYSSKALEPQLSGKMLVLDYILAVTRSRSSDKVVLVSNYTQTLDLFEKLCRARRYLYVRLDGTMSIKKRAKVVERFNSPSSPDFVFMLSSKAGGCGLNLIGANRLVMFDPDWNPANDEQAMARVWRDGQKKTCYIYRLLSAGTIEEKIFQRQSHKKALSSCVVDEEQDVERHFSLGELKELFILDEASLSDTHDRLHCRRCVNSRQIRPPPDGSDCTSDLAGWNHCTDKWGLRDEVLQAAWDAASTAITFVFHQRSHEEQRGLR
In words: RAD54 Holliday junction migration blockers – biochemical, fluorescence, cherry-picked samples, dose series, confirmation (AID 651657). It counts as functional.

Test [10] is described as follows: Luminescence Cell-Based Dose Response HTS to Identify Activators of Luciferase Translation or Activity in H4 […] Cells. [Related pubchem assays: 1829 (Project Summary), 1814 (Primary HTS)]. It is filed as functional.
Test [11] has as its target T3, Replicative DNA helicase DnaB (Mycobacterium tuberculosis, UniProt P9WMR3).
T3 sequence (P9WMR3 whole entry): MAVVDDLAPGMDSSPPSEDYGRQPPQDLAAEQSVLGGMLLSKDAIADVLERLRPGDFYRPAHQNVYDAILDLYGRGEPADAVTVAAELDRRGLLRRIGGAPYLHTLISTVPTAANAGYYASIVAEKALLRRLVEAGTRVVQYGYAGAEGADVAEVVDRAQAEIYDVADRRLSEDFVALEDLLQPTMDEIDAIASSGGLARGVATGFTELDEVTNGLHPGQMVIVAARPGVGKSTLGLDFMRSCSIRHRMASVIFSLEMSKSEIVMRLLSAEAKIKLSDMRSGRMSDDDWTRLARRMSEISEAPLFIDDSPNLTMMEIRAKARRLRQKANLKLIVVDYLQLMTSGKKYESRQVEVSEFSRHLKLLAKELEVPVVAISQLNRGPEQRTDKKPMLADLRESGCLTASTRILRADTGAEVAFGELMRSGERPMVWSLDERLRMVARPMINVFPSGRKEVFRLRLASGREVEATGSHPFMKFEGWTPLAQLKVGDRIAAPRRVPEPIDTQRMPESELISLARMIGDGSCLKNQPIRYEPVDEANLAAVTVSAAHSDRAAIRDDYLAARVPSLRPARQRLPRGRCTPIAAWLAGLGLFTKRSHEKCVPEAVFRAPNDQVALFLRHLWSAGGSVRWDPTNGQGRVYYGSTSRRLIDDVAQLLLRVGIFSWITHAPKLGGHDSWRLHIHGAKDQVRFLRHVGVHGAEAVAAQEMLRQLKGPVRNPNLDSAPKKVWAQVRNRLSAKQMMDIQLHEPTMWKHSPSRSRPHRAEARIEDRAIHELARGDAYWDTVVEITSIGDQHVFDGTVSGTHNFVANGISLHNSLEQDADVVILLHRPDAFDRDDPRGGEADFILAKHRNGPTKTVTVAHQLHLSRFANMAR
Nature of the test: DnaB intein splicing inhibitors, dose response, biochemical, cell-free fluorescence (AID 449749). It counts as functional.

In test [12] the test system is Streptococcus. In words: GAS UMAA2166 growth inhibition – luminescence, BacTiterGlo, counter-screen for streptokinase expression inhibitor project, dose response (AID 1915).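 Also: potency for reduction of bacterial viability or growth.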 It counts as functional, organism-based.
For test [13], the target named is T4, Protein RecA (Mycobacterium tuberculosis, UniProt P9WHJ3).
T4 sequence (P9WHJ3 whole entry): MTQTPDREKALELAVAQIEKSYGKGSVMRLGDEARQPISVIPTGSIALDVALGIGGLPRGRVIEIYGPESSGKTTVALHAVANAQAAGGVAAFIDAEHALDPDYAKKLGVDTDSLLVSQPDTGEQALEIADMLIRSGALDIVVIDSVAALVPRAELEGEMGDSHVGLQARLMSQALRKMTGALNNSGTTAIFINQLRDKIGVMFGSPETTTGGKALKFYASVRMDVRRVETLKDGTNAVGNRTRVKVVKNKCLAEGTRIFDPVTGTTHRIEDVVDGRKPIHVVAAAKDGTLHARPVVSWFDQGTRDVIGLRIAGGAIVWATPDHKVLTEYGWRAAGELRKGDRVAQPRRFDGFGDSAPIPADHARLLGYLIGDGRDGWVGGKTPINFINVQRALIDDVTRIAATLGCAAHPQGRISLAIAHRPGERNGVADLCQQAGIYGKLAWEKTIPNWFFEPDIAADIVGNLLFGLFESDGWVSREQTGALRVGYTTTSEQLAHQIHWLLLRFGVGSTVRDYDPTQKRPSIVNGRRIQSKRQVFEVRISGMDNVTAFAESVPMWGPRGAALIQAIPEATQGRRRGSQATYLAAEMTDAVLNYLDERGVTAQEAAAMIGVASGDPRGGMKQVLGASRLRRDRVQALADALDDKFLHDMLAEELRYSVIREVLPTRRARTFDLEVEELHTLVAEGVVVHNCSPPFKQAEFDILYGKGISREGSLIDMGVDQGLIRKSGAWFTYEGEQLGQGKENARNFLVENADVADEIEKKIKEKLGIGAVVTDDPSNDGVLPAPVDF
In words: Fluorescence Cell-Free Homogeneous Dose Retest to Identify Inhibitors of RecA-Intein Splicing Activity. [Related pubchem assays (depositor defined):AID2097, AID2223, AID489010, AID492950]. It counts as functional.

For test [14], the system named is Streptococcus sp. 'group A'. Nature of the test: Streptococcus pyogenes SK(-)GAS viability under kanamycin – luminescence, BacTiterGlo, confirmation, counter-screen for streptokinase expression inhibitor project, dose response (AID 1900). It counts as functional, organism-based.
In test [15] the target is T5, Streptokinase A (Streptococcus pyogenes serotype M1, UniProt P10520).
T5 sequence (P10520 whole entry): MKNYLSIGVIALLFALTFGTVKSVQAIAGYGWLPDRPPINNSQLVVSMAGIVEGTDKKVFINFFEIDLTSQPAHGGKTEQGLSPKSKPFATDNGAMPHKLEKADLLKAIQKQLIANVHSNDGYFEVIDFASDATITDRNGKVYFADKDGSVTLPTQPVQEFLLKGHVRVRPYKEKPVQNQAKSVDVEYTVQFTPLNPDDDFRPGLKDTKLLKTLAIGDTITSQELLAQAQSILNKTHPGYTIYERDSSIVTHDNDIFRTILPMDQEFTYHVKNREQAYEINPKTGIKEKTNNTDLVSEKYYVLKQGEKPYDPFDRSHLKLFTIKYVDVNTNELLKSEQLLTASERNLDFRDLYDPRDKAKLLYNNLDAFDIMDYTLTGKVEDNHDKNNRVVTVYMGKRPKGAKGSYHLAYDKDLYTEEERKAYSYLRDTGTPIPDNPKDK
In words: viability-normalized secreted streptokinase activity reduction – plasminogen activation absorbance, OD405, dose response (AID 1914).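 Also: secreted streptokinase activity via plasminogen activation per viability signal from cell pellet.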 It counts as functional, Streptococcus pyogenes M1 GAS.

A short description of test [16]: Intein inhibitors as potential Tuberculosis drugs, a cytotoxicity screen. [Related pubchem assays (depositor defined):AID2221, AID2223, AID434968, AID435010, AID449749, AID449750, AID489010]. It is filed as functional.
Test [17] has as its target T6, Caspase-6 (Homo sapiens, UniProt P55212).
T6 sequence (P55212 whole entry): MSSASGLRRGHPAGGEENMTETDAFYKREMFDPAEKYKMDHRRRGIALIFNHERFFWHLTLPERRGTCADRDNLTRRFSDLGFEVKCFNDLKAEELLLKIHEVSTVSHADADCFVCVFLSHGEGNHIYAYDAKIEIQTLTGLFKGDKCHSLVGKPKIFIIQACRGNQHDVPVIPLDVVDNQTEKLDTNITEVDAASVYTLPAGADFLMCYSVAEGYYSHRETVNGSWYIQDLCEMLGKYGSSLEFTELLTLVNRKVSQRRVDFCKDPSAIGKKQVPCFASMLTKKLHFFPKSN
In words: inhibition of CASP6 peptide cleavage – biochemical, VEID-R110 fluorescence, cherry-pick, dose response (AID 720632).

Test [18] deals with INS1. Nature of the test: INS-1E survival protection against cytokine death – cell-based, luminescence, retest, dose response (AID 449756).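 Also: cell death triggered by IL-1 beta plus TNF-alpha plus IFN-gamma mixture; protective hits raise ATP signal compared with cytokine alone wells.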 It is filed as functional. The following applies: Rattus norvegicus.
The target in test [19] is E3 ubiquitin-protein ligase UHRF1 (Homo sapiens, UniProt Q96T88). Nature of the test: Counterscreen for inhibitors of 5-meCpG-binding domain protein 2 (MBD2): TRFRET-based biochemical high throughput dose response assay to identify inhibitors of binding of ubiquitin-like with PHD and ring finger domains 1 (UHRF1) to methylated oligonucleotide.
Test [20] concerns the target T7, NAD-dependent protein deacylase sirtuin-5, mitochondrial (Homo sapiens, UniProt Q9NXA8). In words: sirtuin-5 deacylation blockers, concentration series – biochemical, fluorescence imaging, cherry-pick, set 5, dose response (AID 720591).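 Also: desuccinylation of succinyl peptide AMC substrate read as fluorescence after trypsin release; potency of inhibitors that lower fluorescence and may act on trypsin instead.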
The target of test [21] is T7, NAD-dependent protein deacylase sirtuin-5, mitochondrial. Nature of the test: blockers of sirtuin-5 peptide desuccinylation – biochemical, fluorescence imaging, cherry-pick, set 6, dose response (AID 720597).
A short description of test [22]: inhibitors of non-replicating M. tuberculosis, dose response, luciferase, dry powder (AID 651620). It counts as functional. To be noted: Mycobacterium tuberculosis.
Test [23] in a line: inhibitors of non-replicating M. tuberculosis, dose response, luciferase, dry powder (AID 651619). It is filed as functional. To be noted: Mycobacterium tuberculosis.
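For CC50 in this document: cells exposed to compound for 72 hours before luminescence readout.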

T7 sequence (Q9NXA8 whole entry): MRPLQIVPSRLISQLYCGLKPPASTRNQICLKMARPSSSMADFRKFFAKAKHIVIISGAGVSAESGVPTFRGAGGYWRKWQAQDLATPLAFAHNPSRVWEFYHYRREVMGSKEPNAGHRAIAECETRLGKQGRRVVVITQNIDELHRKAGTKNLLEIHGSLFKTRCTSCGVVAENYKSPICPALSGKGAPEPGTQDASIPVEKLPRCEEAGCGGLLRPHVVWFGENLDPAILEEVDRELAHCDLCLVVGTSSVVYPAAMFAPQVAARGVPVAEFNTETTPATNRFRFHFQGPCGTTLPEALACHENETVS
E3 ubiquitin-protein ligase UHRF1, sequence (Q96T88 whole entry, the tested form may be a part): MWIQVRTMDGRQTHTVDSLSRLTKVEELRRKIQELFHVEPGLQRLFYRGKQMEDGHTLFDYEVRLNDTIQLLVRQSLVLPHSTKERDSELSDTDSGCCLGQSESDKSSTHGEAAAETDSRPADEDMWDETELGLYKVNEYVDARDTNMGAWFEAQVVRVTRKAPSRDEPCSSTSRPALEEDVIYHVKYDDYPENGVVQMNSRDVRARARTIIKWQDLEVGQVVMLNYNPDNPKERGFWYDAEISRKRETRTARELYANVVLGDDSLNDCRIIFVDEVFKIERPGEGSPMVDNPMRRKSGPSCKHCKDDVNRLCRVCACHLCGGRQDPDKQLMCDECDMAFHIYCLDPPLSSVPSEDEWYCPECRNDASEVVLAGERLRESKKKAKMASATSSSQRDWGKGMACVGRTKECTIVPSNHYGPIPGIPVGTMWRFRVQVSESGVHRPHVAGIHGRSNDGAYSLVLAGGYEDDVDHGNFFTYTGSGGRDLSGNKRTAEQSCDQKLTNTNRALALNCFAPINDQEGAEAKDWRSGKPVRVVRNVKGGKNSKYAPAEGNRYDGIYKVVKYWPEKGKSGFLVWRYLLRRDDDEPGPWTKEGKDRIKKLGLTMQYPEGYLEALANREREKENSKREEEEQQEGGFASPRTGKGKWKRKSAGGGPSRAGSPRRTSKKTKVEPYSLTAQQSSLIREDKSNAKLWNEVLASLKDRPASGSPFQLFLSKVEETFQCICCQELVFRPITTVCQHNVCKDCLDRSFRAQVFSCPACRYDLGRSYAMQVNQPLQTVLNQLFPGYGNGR
FAD-linked sulfhydryl oxidase ALR, sequence (P55789 whole entry): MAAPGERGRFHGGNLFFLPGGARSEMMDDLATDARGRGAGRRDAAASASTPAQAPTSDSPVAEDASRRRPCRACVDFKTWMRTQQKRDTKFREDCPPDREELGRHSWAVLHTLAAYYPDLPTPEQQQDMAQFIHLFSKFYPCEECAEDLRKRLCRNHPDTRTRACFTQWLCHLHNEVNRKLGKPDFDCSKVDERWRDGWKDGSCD

As for `Cc1cc2oc3cc(NCCC4CCCN4C)ccc3c(=O)c2cc1C` (stereo not drawn), the half-maximal activity concentration (AC50) in [1] was 9.92 µM (active); in test [2], 22.6 µM (active); in test [3], 0.287 µM (active); in test [4] it was 35 µM (active); in test [6], 12.4 µM (active); in test [8], 11.2 µM (active). The AC50 in [9] is 13.3 µM (active). Besides, the IC50 in test [5] was > 20 µM (inactive). In addition, the EC50 in test [7] is 45.4 µM (active); in [10], 0.113 µM (active).
With `CCN(CC)CCNC(=O)c1ccc2c(c1NCCO)C(=O)c1ccccc1C2=O`, the half-maximal activity concentration (AC50) is 4.5 µM (active) in test [11], 5.96 µM (active) in test [17] and 4.09 µM (active) in test [18]. For the same compound, the EC50 is > 150 µM (not active) in test [12], 0.524 µM (active) in test [13], 12.9 µM (active) in test [14] and > 150 µM (not active) in test [15]. For the same compound, the half-maximal cytotoxic concentration (CC50) in [16] was 26.2 µM (active). In [19], the IC50 was > 43.8 µM (inactive).
For the compound `COc1ccc(C(C(=O)NC(C)(C)C)N(Cc2ccco2)C(=O)CCC(=O)Nc2cc(C)on2)cc1` (stereo not drawn), the half-maximal activity concentration (AC50) in test [20] was 23.5 µM (active).
On to `COCC(=O)NC[C@@H]1N[C@@H](CO)[C@H]1c1ccc(C2=CCCCC2)cc1`, for which, in test [21], the AC50 was > 30 µM (inactive).
Take `[N-]=[N+]=NCCOCCNC(=O)CCCOc1ccc(-c2nnc(SCc3ccccn3)o2)cc1`: the 90% effect concentration (IC90) in test [22] and in test [23] was 31 µM (active) throughout.
